Data as given in paper PMC8752837, “Structural basis of BAK activation in mitochondrial apoptosis initiation” (Nature Communications, 2022).
Where two headings read alike, the source gives them in different places.

Columns and labels:
[1] = test system: I81A(3) BAK; test: Liposome permeabilization assay: BH3 peptide activation of I81A(3) BAK receptor; type: biochemical, human; settings: 50 nM mutant BAK; Suppl. Fig. 4f
Method: We performed liposome permeabilization assays as previously described[43]-[46]. […] We mixed the lipid film in ANTS/DPX solution by vortexing and sonication (~15 min) followed by extrusion through polycarbonate membrane of 2 μm pore size (Avanti Polar lipids) to generate homogenous large unilamellar vesicles (LUVs). We separated LUVs from free ANTS/DPX by S500 size exclusion chromatography and stored them at 4 °C in the dark. We prepared peptide and protein dilutions in 96-well black flat bottom plates (Costar) kept on ice. […] We quantified liposome permabilization by integrating area under curve (AUC) of normalized traces based on the Simpson's equation, and analyzed that data in Excel and GraphPad Prism. AUC measurements reflect the kinetic and extent of liposome permeabilization and provide quantitative means for comparison between different experimental conditions (e.g., BAK mutants with gross or partial variation in activity). Variability in permeabilization of different liposomes is common and our analyses compare among conditions investigated with the same liposomes. Although the absolute permeabilization values may differ, the trends for the same conditions are always very similar between different liposomes.

[2] = molecular target: T1, Human BAK-∆TM-His6 (BAK) (Homo sapiens, UniProt Q16611); test: Liposome permeabilization assay (ANTS/DPX dye release from LUVs): activation of WT BAK by BH3 peptides;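 for AUC for Experiment-2 (Mean): traces normalized between buffer minimum and 3% CHAPS maximum fluorescence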;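 for AUC for Experiment-3 (Mean): traces normalized between buffer minimum and 3% CHAPS maximum fluorescence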; type: biochemical; design: AUC for Experiment-2 (Mean) / AUC for Experiment-3 (Mean) / AUC for Experiment-1 (Mean):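 traces normalized between buffer minimum and 3% CHAPS maximum fluorescence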; settings: for EC50: 50 nM BAK; for activation of WT BAK in liposome permeabilization assays: BAK BH3 peptide ligands, 50 nM WT BAK receptor; for peptide concentration at which ligands activate WT BAK / lowest dose at which permeabilization is observed: liposome permeabilization; for peptide concentration at which ligands activate WT BAK: Suppl. Figs. 3e, 4d, e; for lowest dose at which permeabilization is observed: robust across experiments; for AUC for Experiment-1 (Mean) / AUC for Experiment-2 (Mean) / AUC for Experiment-3 (Mean): AUC 0-88 mins of liposome permeabilization; for AUC for Experiment-1 (Mean): Experiment-1, mean of N replicates; for AUC for Experiment-2 (Mean): Experiment-2, mean of N replicates; for AUC for Experiment-3 (Mean): Experiment-3, mean of N replicates
T1 construct: C-terminus truncated recombinant human BAK containing C-terminal 6× histidine tag (MEAS-BAK); made in house; host or cells: E. coli T7 Express pLac I/Y
T1 sequence (Q16611 1-186 limits assumed): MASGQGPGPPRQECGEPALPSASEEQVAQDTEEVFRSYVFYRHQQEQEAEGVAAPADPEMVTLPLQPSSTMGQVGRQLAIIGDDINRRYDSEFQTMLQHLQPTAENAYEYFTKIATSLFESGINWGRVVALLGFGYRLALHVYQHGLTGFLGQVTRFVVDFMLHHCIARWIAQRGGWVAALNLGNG

[3] = molecular target: T2, GST-BAK (Homo sapiens, UniProt Q16611); test: Competitive fluorescence polarization assay (displacement of BID BH3 SAHB-F); type: binding; settings: competitive FP
T2 construct: made in house
T2 sequence (Q16611 1-211): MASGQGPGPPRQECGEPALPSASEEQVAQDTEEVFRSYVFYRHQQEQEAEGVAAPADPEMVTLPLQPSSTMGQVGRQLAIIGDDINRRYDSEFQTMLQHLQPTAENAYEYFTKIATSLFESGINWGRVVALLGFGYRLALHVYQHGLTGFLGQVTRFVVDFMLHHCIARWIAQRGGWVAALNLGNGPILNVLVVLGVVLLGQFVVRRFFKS
Source text: We also tested the monosubstituted peptides in competitive fluorescence polarization (FP) binding assays, which measure displacement from GST-BAK of BID BH3 stabilized alpha helix of BCL-2 proteins (SAHB) C-terminally tagged with fluorescein and thus informs on peptide binding affinity.
We carried out fluorescence polarization assays, measuring the displacement of the fluorescent peptide BID BH3 SAHB-F from GST-BAK, in 384-well Greiner black polystyrene plates with flat bottom (Sigma-Aldrich). Master mix consisted of 50 mM Tris-HCl pH 7.5, 50 mM KCl, 0.1 mg/mL BSA, 2 mM DTT, 0.005% Tween-20, 10 nM BID BH3 SAHB-F, and 1 µM GST-BAK. We pin transferred peptides using Biomek FX (Beckman Coulter Life Sciences, IN) to achieve final concentration of 500−0.2 µM in 20 µL final volume. We gently centrifuged plates to remove air bubbles for 1 min at 1000 rpm, and incubated them for 60 min at RT. […] Free peptide controls in each plate consisted of only BID BH3 SAHB-F and bound peptide controls containing BID BH3 SAHB-F + GST-BAK. We derived Z’-values using the equation [1 − 3(stdev^L + stdev^H)]/(average^H − average^L), where L is the free peptide control and H is the bound peptide control. […] We processed and visualized data using the software Robust Investigation of Screening Experiments (RISE) developed in house in the Pipeline Pilot platform (Accelrys, v.8.5.0). We performed at least three independent dose-response experiments for each peptide. We estimated IC50 values in RISE and GraphPad Prism v.8.0a.

[4] = molecular target: T3, WT tevBAK (Homo sapiens, UniProt Q16611); test: Isothermal titration calorimetry; type: binding; settings: 25 °C; single site binding model
T3 construct: To generate tevBAK (residues 22–186), we cleaved off the histidine tag with TEV protease; His tag (vector pNIC28-Bsa4) (N, cleaved yes); made in house; host or cells: E. coli T7 Express pLac I/Y
T3 sequence (Q16611 22-186): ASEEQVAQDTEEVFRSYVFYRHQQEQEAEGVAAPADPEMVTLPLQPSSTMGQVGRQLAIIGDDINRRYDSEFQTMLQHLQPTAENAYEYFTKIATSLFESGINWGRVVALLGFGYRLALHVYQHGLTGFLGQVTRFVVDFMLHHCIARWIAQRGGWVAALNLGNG
Method: Protein samples were exchanged into 20 mM HEPES, 100 mM NaCl and 1 mM TCEP prior to the experiment. Titrations were performed by first injecting 0.5 μl of 250 or 500 µM BID BH3 peptides into a solution of 20 or 50 µM BAK followed by additional 2 μl injections. […] Results were analyzed using Origin software (OriginLab) provided by MicroCal. Binding constants (KD) and thermodynamic parameters were calculated from the average of two or three individual titrations by fitting the data to a single site binding model using a nonlinear least-squares fitting algorithm.

## CC[C@H](C)[C@H](NC(=O)[C@H](C)NC(=O)[C@H](CC(C)C)NC(=O)[C@H](CCC(N)=O)NC(=O)[C@H](CCCNC(=N)N)NC(=O)CNC(=O)[C@@H](NC(=O)[C@H](CCC(N)=O)NC(=O)CNC(=O)[C@H](CCSC)NC(=O)[C@@H](NC(=O)[C@H](CO)NC(=O)[C@H](CO)NC(C)=O)[C@@H](C)O)C(C)C)C(=O)N[C@H](C(=O)NCC(=O)N[C@@H](CC(=O)O)C(=O)N[C@@H](CC(=O)O)C(=O)N[C@H](C(=O)N[C@@H](CC(N)=O)C(=O)N[C@@H](CCCNC(=N)N)C(=O)N[C@@H](CCCNC(=N)N)C(=O)N[C@@H](Cc1ccc(O)cc1)C(N)=O)[C@@H](C)CC)[C@@H](C)CC [WT BAK BH3]
[1]
  liposome permeabilization by 50 nM I81A(3) BAK receptor: neither peptide ligands could promote liposome permeabilization
[2]; EC50 from AUC vs peptide dose, data in Supplementary Figure 4b, 37 °C, 90 min, read-out: Liposome permeabilization EC50
  EC50: 0.0358 ± 0.0304 µM
[2]; peer review file, read-out: EC50 analysis of liposome permeabilization (rebuttal, earlier manuscript version)
  EC50: 0.05 to 0.2 µM
[2]
  activation of WT BAK in liposome permeabilization assays: activates BAK in liposome permeabilization assays similarly to BID BH3
  peptide concentration at which ligands activate WT BAK: above 1 µM
  lowest dose at which permeabilization is observed: 0.1 µM
[2]; listed as WT BAK BH3 peptide
  activation of WT BAK in liposome permeabilization assays: potently activate WT BAK

## CC[C@H](C)[C@H](NC(=O)[C@H](CO)NC(=O)[C@H](CCCNC(=N)N)NC(=O)[C@H](CC(=O)O)NC(=O)[C@H](CCSC)NC(=O)[C@H](CO)NC(=O)[C@H](CC(=O)O)NC(=O)CNC(=O)[C@@H](NC(=O)[C@H](CCC(N)=O)NC(=O)[C@H](C)NC(=O)[C@H](CC(C)C)NC(=O)[C@H](Cc1c[nH]cn1)NC(=O)[C@H](CCCNC(=N)N)NC(=O)[C@H](C)NC(=O)[C@@H](NC(=O)[C@H](CC(N)=O)NC(=O)[C@H](CCCNC(=N)N)NC(=O)[C@@H](NC(=O)[C@@H](NC(=O)[C@H](CC(=O)O)NC(=O)[C@H](CCC(=O)O)NC(C)=O)[C@@H](C)CC)[C@@H](C)CC)[C@@H](C)CC)C(C)C)C(N)=O [WT BID BH3, reference compound]
[1]
  liposome permeabilization by 50 nM I81A(3) BAK receptor: neither peptide ligands could promote liposome permeabilization
[2]; EC50 from AUC vs peptide dose, data in Supplementary Figure 7c, 37 °C, 90 min, read-out: Liposome permeabilization EC50
  EC50: 0.059 ± 0.012 µM
[2]; 1 μM peptide + 50 nM BAK
  AUC for Experiment-1 (Mean): 17.777
  AUC for Experiment-2 (Mean): 10.071
  AUC for Experiment-3 (Mean): 10.975
[2]; 50 μM peptide + 50 nM BAK
  AUC for Experiment-1 (Mean): 14.842
  AUC for Experiment-2 (Mean): 13.692
  AUC for Experiment-3 (Mean): 17.854
[2]
  peptide concentration at which ligands activate WT BAK: above 1 µM
  lowest dose at which permeabilization is observed: 1 µM
[3]; Experiment-1
  IC50: 12.73 µM
[3]; Experiment-2
  IC50: 6.926 µM
[3]; Experiment-3
  IC50: 15.45 µM
[3]; Experiment-4
  IC50: 8.804 µM
[3]; Experiment-5
  IC50: 11 µM
[3]; Experiment-6
  IC50: 9.271 µM
[3]; Experiment-7
  IC50: 11.57 µM
[3]; Experiment-9
  IC50: 22.17 µM
[3]; mean of the experiments (replicated 4-9 times), read-out: IC50 Mean
  IC50: 12.2 µM
[4]
  ITC -T∆S: 1.72 ± 0.46 kJ/mol
  ITC ∆G: -26.5 ± 0.17 kJ/mol
  ITC ∆H: -28.2 ± 0.29 kJ/mol
